Data reported in publication PMC8536600 (Cancer Chemotherapy and Pharmacology, 2021).
Read-outs that look alike come from different tables or passages of the source.

Experiments:
[1] = Steady state Ruxolitinib trough serum concentrations in GvHD patients in clinical routine (LC-MS/MS); format: in vivo, human
Text: Patients were enrolled in a noninterventional prospective clinical trial at the University Hospital of Würzburg between February 2019 and February 2021. The study was approved by the Ethics Commission of the University of Würzburg (ref 199/18-am). All performed procedures were in accordance with the Declaration of Helsinki. Written informed consent was obtained from all patients. […] After enrollment blood samples and patient data were collected regularly during routine outpatient visits for 1 year. Treatment was managed at the discretion of the treating physician.
Serum samples were collected at each outpatient visit during routine blood withdrawal. Patients were asked to take Ruxolitinib after blood withdrawal. Date and time of last administration and blood withdrawal were recorded. Samples obtained at least 48 h after initiation or modification of therapy were considered steady state samples [27]. Samples obtained between eight and 30 h after last administration (depending on dosing scheme) were considered trough levels.
In brief, after protein precipitation with acetonitrile separation was achieved on a Waters XBridge Phenyl 3.5 µm (2.1 × 50 mm) column using gradient elution (flow rate 400 μL/min). […] Lower level of quantification (LLOQ) of the method was 2 ng/mL. Concentrations < LLOQ were excluded from further statistical analysis but included as censored data (between 0 ng/mL and LLOQ) in the popPK analysis.
(§1) Data were collected and processed using Microsoft Excel 2016 Version 16.0 (Microsoft Corporation, Redmond, WA, USA). Statistical calculations and visualization of results were performed with R Studio Version 1.2.5042 (RStudio Incorporation, Boston, MA, USA) and running R version 4.0.5 (R Foundation for Statistical Computing, Vienna, Austria, 2020). […] To fully display the degree of variability, concentrations were also summarized across all patients, stratified by dosing scheme. Pairwise comparisons were performed using Wilcoxon rank-sum test. Wilcoxon-signed-rank test was used for […] samples. For comparisons between more than two groups the Kruskal–Wallis one-way analysis of variance combined with Dunn’s test post hoc was used. Spearman’s correlation was used for analysis of AE. Logistic regression followed by receiver operator characteristic (ROC) analysis was used to evaluate the risk for the occurrence of AE of any grade or type on a visit in relation to the corresponding trough concentration on that visit. Due to the explorative nature of the study, p values obtained from multiple comparisons were not corrected for multiple testing. A p value < 0.05 was considered statistically significant. A Spearman’s rho (ρ) correlation was defined as follows: 0 to 0.3 or 0 to −0.3, weak; 0.3 to 0.7 or −0.3 to −0.7, moderate and 0.7 to 1 or −0.7 to −1, strong.

[2] = Exploratory population pharmacokinetic (popPK) analysis in GvHD patients; format: in vivo, human; details: for RUV b (residual unexplained variability, proportional error) / ωCL/F (inter-individual variability on CL/F) / ωV (inter-individual variability on Vc/F): as standard deviation of normal distribution
Protocol: An exploratory popPK analysis was conducted to identify relevant covariates influencing drug exposure, to predict the influence of strong CYP3A4 or CYP2C9 inhibitors or PPI and to generate population estimates for apparent oral clearance (CL/F) and apparent central volume of distribution (Vc/F) as classical statistical analysis was not suitable due to the unbalanced number of samples per patient. The analysis was conducted on the individual raw data (as opposed to the descriptive statistics) using Monolix 2020R1 (Antony, France: Lixoft SAS, 2020) and was based on a previously published popPK model by Chen et al. investigating pharmacokinetics in patients with primary and secondary myelofibrosis (MF).
Oral pharmacokinetics were described by a two-compartment model using first order absorption with lag time and linear elimination from the first compartment only. The population mean values for CL/F and Vc/F were re-estimated using the SAEM algorithm implemented in Monolix. The remaining parameters, except for the covariate model, were fixed to the original values. As in the original model, all pharmacokinetic parameters were assumed to be log-normally distributed. Dichotomous categorical covariates, were implemented as follows:1 logCL/Ftypical=logCL/Fpop+β^COV with COV being 0 or 1 encoding for the presence or absence of covariate effect.
Continuous covariates were scaled to the population mean values using the following exponential relationship:2 logCL/Ftypical=logCL/Fpop+β∙COV with COV being the value of individual covariate, e.g., scaled eGFR = eGFR/70.2.
Inter-individual variability (η) was implemented for CL/F and Vc/F according to: 3 logCL/Find=logCL/Ftypical+ηind,CLFwithηCL/F∼N0,ωCL/F2logVc/Find=logVc/Ftypical+ηind,Vc/FwithηVc/F∼N0,ωVc/F2
Residual unexplained variability (RUV) was modeled using a proportional error model represented by the parameter b and the following equation:4 Concobs=Concpred∙1+ϵwithϵ∼N(0,b^2)
A stepwise approach was used to develop the covariate model. Covariate effects were assessed using the Wald test and by comparing objective function values (OFV, which is the −2-log-likelihood) and derived descriptors such as Bayesian Information Criteria (BIC), corrected Bayesian Information Criteria (cBIC), and Akaike Information Criteria (AIC). The criterion for forward inclusion was an improvement of the OFV (p ≤ 0.1). In the backward elimination, a limit for the p value of < 0.05 was applied. The following covariates were tested: the presence of strong or moderate CYP3A4 or CYP2C9 inhibitors on CL/F, the presence of PPI on F (as relative bioavailability), aspartate aminotransferase (AST) on CL/F, total body weight on Vc/F, eGFR on CL/F, sex on CL/F, and smoking habit on CL/F.

[3] = Observed concentrations versus concentrations simulated with Chen et al.'s popPK model for myelofibrosis patients; parameters: species or system human; details: simulated with Chen et al.'s MF model, lower than observed
Text: The model published by Chen et al. was also encoded in R using the mrgsolve package for R [30]. Applying patient covariates and dosing schemes, the model was used to predict every observed concentration of every patient included in our study based on individual patient covariates and dosing data.

[4] = Clinical and laboratory adverse events (CTCAE v5.0) in relation to Ruxolitinib trough serum concentration; format: in vivo, human; details: for Mean trough concentration in group: logistic regression on at least three AE
Protocol: Adverse events (AE) were registered by questioning patients at each sampling time point. Patients were specifically asked for AE occurring in ≥ 1/100 patients according to the prescribing information. Clinical AE were graded according to the […] (CTCAE) Version 5.0 [26]. Further recorded patient data included age, sex, height, weight, ethnicity, smoking status, dosing regimen, and comedication. Relevant laboratory parameters were recorded in parallel to blood sampling (estimated glomerular filtration rate (eGFR), serum creatinine, serum albumin, total cholesterol, total bilirubin, hemoglobin, white blood cell count, absolute neutrophil count, platelet count, aspartate, and alanine aminotransferase).
as §1

[5] = parameters: method as in Chen et al., J Clin Pharmacol. 2013;53(7):721-30; details: fixed, ref Chen et al., J Clin Pharmacol. 2013;53(7):721-30, cited from earlier work
[6] = cited from earlier work
CYP3A4 = details: cited from earlier work
[7] = daily dose 5-< 20 mg, 51 samples
[8] = daily dose > 20-40 mg, 3 samples
[9] = popPK analysis in patients with aGvHD

For `N#CC[C@H](C1CCCC1)n1cc(-c2ncnc3[nH]ccc23)cn1` [Ruxolitinib], the “All trough serum concentrations at 5 mg daily” value ([1]; 5 mg daily, 3 of 4 samples < LLOQ (2 ng/mL)) was “^aAll trough serum concentrations at 5 mg daily were ≤ 2.17 ng/mL (3 of 4 samples < LLOQ)”, the “Range of individual mean trough serum concentrations” value ([1]; 20 mg daily, n = 20 individuals) was 5.6 to 99.8 ng/mL and the “Median of individual mean trough serum concentrations” value ([1]; 20 mg daily, patients not requiring AE-related dose reduction, n = 18) was 39.8 ng/mL. The “Median of individual mean trough serum concentrations” value ([1]; 20 mg daily, patients who had dose reductions for AE, before reduction, n = 4) was 60.6 ng/mL, the “Median of individual mean trough serum concentrations” value ([1]; 20 mg daily, steady state, n = 20 individuals) was 39.9 ng/mL and the “Range of individual mean trough serum concentrations” value ([1]; 5-< 20 mg daily, n = 8 individuals) was 7.7 to 46.8 ng/mL. The “Median of individual mean trough serum concentrations” value ([1]; 5-< 20 mg daily, steady state, n = 8 individuals) was 26.2 ng/mL, the “Median of individual mean trough serum concentrations” value ([1]; > 20-40 mg daily, steady state, n = 2 individuals) was 15 ng/mL and the “Steady state trough serum concentration of all samples across all individuals, Median” value (“Steady state trough serum concentration … Median” below) ([1]; daily dose 20 mg, 120 samples) was 40.5 ng/mL. For the same molecule, the “Steady state trough serum concentration of all samples across all individuals, Range” value (“Steady state trough serum concentration … Range” below) ([1]; daily dose 20 mg, 120 samples) was 2.7 to 229 ng/mL, the “Steady state trough serum concentration … Median” value [1, 7] was 17.5 ng/mL and the “Steady state trough serum concentration … Range” value [1, 7] was 2.2 to 155 ng/mL. For the same molecule, the “Steady state trough serum concentration … Median” value [1, 8] was 25.1 ng/mL, the “Steady state trough serum concentration … Range” value [1, 8] was 4.3 to 28.5 ng/mL and the “Steady state trough serum concentration … Median” value ([1]; daily dose: All, 174 samples) was 31.4 ng/mL. For the same molecule, the “Steady state trough serum concentration … Range” value ([1]; daily dose: All, 174 samples) was 2.2 to 229 ng/mL, the “Median of mean trough concentrations” value ([1]; patients with AE-related dose reduction, after dose reduction, n = 4) was 28.4 ng/mL and the “Trough concentrations under dual CYP inhibition” value ([1]; two patients receiving Posaconazole plus Atorvastatin or Amiodarone, mostly above this value) was greater than 80 ng/mL. The “CL/F, population mean” value ([2]; base model) was 8.55 L/h, the “Vc/F, population mean” value ([2]; base model) was 64.8 L and the “RUV b (residual unexplained variability, proportional error)” value ([2]; base model) was 0.50. For the same molecule, the “ωCL/F (inter-individual variability on CL/F)” value ([2]; base model) was 0.52, the “ωV (inter-individual variability on Vc/F)” value ([2]; base model) was 0.25 and the “Reduction of CL/F due to coadministration of at least one strong CYP3A4 or CYP2C9 inhibitor” value ([2]; compared to study patients not receiving relevant strong inhibitors, back transformation of β) was 15%. For the same molecule, the “Vc/F, population mean” value ([2]; covariate model) was 61.9 L, the “βCL, STRONG_INH (covariate effect of strong CYP3A4 or CYP2C9 inhibitors on CL/F)” value ([2]; covariate model) was -0.16 and the “CL/F, population mean (typical CL/F)” value ([2]; covariate model including strong CYP inhibitors as covariate) was 9.74 L/h. The “Share of inter-individual variability on CL/F explained by strong CYP3A4 or CYP2C9 inhibitors” value ([2]; covariate model vs base model) was “about 4%”, the “RUV b (residual unexplained variability, proportional error)” value ([2]; covariate model) was 0.50 and the “ωCL/F (inter-individual variability on CL/F)” value ([2]; covariate model) was 0.48. For the same molecule, the “ωV (inter-individual variability on Vc/F)” value ([2]; covariate model) was 0.29, the “Effect of simultaneous administration of PPI on Ruxolitinib exposure” value ([2]; covariate tested on relative bioavailability) was “did not affect Ruxolitinib exposure” and the “Reduction of Ruxolitinib clearance in GvHD population” value ([2]; in comparison to the population of Chen et al. (patients with MF)) was “approximately 50%”. The “Median paired difference between observed and simulated serum concentrations” value ([3]; non-trough concentrations) was 64.9 ng/mL, the “Median paired difference between observed and simulated serum concentrations” value ([3]; trough concentrations) was 27.1 ng/mL and the “Clinical AE reported at the time of blood sampling, total number” value ([4]; 29 GvHD patients, all grades) was 302. For the same molecule, the “Clinical AE of grade 1, number” value ([4]; CTCAE grade 1) was 250, the “Clinical AE of grade 2, number” value ([4]; CTCAE grade 2) was 46 and the “Share of all reported clinical AE of grade 3” value ([4]; CTCAE grade 3) was 2.0%. For the same molecule, the “Clinical AE of grade 4 or 5” value ([4]; CTCAE grade 4 or 5) was “no AE of grade 4 or 5”, the “Average clinical AE reported at each sampling time point” value (shortened to “Average clinical AE reported”) ([4]; grade 1) was 0.95 and the “Average clinical AE reported” value ([4]; grade 2) was 0.18. The “Average clinical AE reported” value ([4]; grade 3) was 0.02, the “Mean trough concentration in group” value ([4]; first of both groups as printed) was 35.9 ng/mL and the “Mean trough concentration in group” value ([4]; second of both groups as printed) was 62.8 ng/mL. For the same molecule, the “Correlation between trough concentration and occurrence of grade 1 AE on the same visit” value ([4]; vertigo and cephalgia, p < 0.05) was “significant correlation”, the “Effect of Ruxolitinib exposure on thrombocyte count, absolute neutrophil count and bilirubin” value ([4]; visual analysis of the data) was “did not reveal obvious effects” and the “Q/F, population mean” value ([5]; base model) was 2.53 L/h. For the same molecule, the “TLag, population mean” value ([5]; base model) was 0.0545 h, the “Vper/F, population mean” value ([5]; base model) was 11.2 L and the “ka, population mean” value ([5]; base model) was 4.12 h⁻¹. The “Q/F, population mean” value ([5]; covariate model) was 2.53 L/h, the “TLag, population mean” value ([5]; covariate model) was 0.0545 h and the “Vper/F, population mean” value ([5]; covariate model) was 11.2 L. The “ka, population mean” value ([5]; covariate model) was 4.12 h⁻¹, the “CL/F for a typical female” value ([6]; patients with MF) was 17.7 L/h and the “CL/F for a typical male” value ([6]; patients with MF) was 22.1 L/h. The “Lower oral clearance in comparison to MF patients” value [6, 9] was 66.7% and the “Slower rate of absorption in comparison to MF patients” value [6, 9] was 28%.

For `CC[C@H]1OC(=O)[C@H](C)[C@@H](O[C@H]2C[C@@](C)(OC)[C@@H](O)[C@H](C)O2)[C@H](C)[C@@H](O[C@@H]2O[C@H](C)C[C@H](N(C)C)[C@H]2O)[C@](C)(O)C[C@@H](C)CN(C)[C@H](C)[C@@H](O)[C@]1(C)O` [Azithromycin], the “CYP3A4 (inhibitor / inducer)” value (CYP3A4) is listed as “inhibitor”.

In the case of `C=C[C@H]1C[N@@]2CC[C@H]1C[C@H]2[C@H](O)c1ccnc2ccc(OC)cc12` [Quinine], the “CYP3A4 (inhibitor / inducer)” value (CYP3A4) is given as “inducer / inhibitor”.

In the case of `CN(C)C(=O)C(CCN1CCC(O)(c2ccc(Cl)cc2)CC1)(c1ccccc1)c1ccccc1` [Loperamide], the “CYP3A4 (inhibitor / inducer)” value (CYP3A4) is given as “inhibitor” and the “CYP3A4 Strength” value (CYP3A4) is given as “strong”.
